Source: EP0769958B1, “INHIBITORS OF LEUKOCYTE ADHESION” (ATHENA NEUROSCIENCES, INC., priority 1994, dated 1996)
“Also recorded” adds a separate entry of the source. Bridge positions count the residues as written; N and C are the ends. Ends that are not written are not given here. Peptide text beside a SMILES is read from it.

Columns and labels:
VLA-4 = target: T1, VLA-4 (Homo sapiens, UniProt P05556+P13612); assay: Jurkat interaction with soluble VCAM-1 (sVCAM-1-IgG), FACS assay of Example 6; format: cell-based; settings: for inhibition of interaction of sVCAM-1-IgG with Jurkat cells: Mn+2 and 15/7 present
T1 construct: endogenous in cells; host or cells: Jurkat cells
Excerpt: VCAM-1 was expressed as a soluble fusion protein. The construct expressed the seven extracellular domains of VCAM-1 on the N-terminus, and the human IgG1 heavy chain constant region on the C-terminus. Interaction of the soluble construct with Jurkat cells was monitored by standard FACS analysis, using a fluorescently labeled antibody directed against the construct's human IgG tail as a marker.
The activity of VLA-4 can be regulated. 15/7 is a monoclonal antibody that recognizes an activated conformation of VLA-4 and locks the molecule in the active state, thereby enhancing VLA-4-mediated cell adhesion.
Peptides of different length, and with various amino acid substitutions were synthesized based on the sequence of the CDR3 region of the antibody 21/6 (EGYYGNYGVYA) (SEQ ID No. 4). The peptides were then tested for their ability to inhibit Jurkat interaction with sVCAM-1-IgG in the FACS assay described in Example 6. IC50 values were determined for each peptide using this assay.

VLA-4 integrin = target: T2, VLA-4 integrin (Homo sapiens, UniProt P05556+P13612); assay: Adhesion of Jurkat cells to peptide-BSA conjugates coated onto plastic; format: cell-based; settings: peptide conjugated to carrier protein, exposed to the plastic at 3 µg/mL; Figure 1
T2 construct: endogenous in cells; host or cells: Jurkat cells
Method: The peptide used in this example was synthesized based on the sequence of the anti-α4 integrin antibody 21/6 (CGGEGYYGNYGVYA, SEQ ID No. 1). In this example the peptide was conjugated to a large carrier protein via the linker region that was synthesized as part of the peptide itself (in italics). The conjugated peptide was then coated onto plastic, and the ability of the conjugate to support cell adhesion was tested. This method is based on a report by Wayner and Kovach^40.
As a positive control, the fibronectin peptide described by Wayner was synthesized, conjugated to carrier protein, and tested for cell adhesion in parallel with SEQ ID NO. 1 (CGGEILDVPST, SEQ ID No. 2). Both peptide conjugates were exposed to the plastic at a concentration of 3 µg/mL. […] Adhesion was not affected by an antibody against β2 integrin (IOT18), a distinct cell adhesion molecule that is also expressed on the surface of Jurkat cells. Thus, like peptide SEQ ID NO. 2, peptide SEQ ID NO. 1 interacts with Jurkat in an α4 integrin-specific fashion.

T1 sequence (P13612 34-1032): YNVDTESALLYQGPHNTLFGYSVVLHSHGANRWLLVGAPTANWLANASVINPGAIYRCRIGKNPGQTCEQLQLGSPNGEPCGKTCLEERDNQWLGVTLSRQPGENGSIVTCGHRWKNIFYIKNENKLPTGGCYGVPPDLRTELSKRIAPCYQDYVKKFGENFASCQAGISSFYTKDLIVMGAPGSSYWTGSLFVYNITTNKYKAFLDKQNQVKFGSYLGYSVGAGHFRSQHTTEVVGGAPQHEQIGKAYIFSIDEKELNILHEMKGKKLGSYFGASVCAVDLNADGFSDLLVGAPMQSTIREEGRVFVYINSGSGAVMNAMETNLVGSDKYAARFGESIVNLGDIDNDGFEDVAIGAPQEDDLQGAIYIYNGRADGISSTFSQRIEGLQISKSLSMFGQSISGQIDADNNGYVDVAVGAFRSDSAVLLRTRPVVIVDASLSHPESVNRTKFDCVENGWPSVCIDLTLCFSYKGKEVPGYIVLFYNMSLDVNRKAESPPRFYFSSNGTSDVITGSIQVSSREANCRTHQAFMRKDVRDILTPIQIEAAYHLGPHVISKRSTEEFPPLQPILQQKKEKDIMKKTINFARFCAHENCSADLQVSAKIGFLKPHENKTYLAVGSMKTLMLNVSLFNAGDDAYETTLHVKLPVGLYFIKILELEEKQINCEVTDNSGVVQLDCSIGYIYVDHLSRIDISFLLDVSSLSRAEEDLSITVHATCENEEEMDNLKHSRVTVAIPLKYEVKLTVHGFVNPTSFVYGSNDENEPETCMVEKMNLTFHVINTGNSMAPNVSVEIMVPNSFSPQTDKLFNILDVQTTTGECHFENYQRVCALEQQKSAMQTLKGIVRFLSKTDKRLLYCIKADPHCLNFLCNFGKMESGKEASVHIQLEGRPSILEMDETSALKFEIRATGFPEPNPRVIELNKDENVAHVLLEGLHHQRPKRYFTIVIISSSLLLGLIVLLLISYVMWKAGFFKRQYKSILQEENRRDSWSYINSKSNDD
T1 sequence (P05556 21-798): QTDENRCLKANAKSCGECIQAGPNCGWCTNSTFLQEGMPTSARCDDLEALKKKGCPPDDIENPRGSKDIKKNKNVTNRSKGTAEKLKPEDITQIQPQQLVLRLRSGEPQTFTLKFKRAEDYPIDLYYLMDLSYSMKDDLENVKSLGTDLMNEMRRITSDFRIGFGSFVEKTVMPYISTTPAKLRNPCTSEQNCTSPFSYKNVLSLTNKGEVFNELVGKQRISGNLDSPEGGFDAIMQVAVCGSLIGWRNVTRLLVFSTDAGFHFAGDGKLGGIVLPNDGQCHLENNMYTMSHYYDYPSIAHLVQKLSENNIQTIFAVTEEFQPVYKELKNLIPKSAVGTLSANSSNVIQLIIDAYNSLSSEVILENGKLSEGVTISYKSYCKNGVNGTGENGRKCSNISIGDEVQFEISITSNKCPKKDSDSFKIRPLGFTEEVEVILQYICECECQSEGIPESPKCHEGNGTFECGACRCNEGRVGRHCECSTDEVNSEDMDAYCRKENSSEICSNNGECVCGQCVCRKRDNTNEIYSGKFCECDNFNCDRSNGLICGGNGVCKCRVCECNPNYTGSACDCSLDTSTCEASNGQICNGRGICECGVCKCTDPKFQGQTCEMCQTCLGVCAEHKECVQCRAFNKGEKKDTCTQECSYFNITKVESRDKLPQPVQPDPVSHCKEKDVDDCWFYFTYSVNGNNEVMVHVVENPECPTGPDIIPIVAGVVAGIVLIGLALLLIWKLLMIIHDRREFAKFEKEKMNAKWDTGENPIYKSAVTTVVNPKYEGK
T2 sequence (P13612 34-1032): as the sequence (P13612 34-1032) above
T2 sequence (P05556 21-798): as the sequence (P05556 21-798) above

Row | Molecule | inhibition of interaction of sVCAM-1-IgG with Jurkat cells (VLA-4; result in words) | adhesion of Jurkat cells to immobilized peptide conjugate (VLA-4 integrin) | further results
1 | NC(=O)C[C@@H]1NC(=O)CNC(=O)[C@H](Cc2ccccc2)NC(=O)CNC(=O)[C@@H](N)CSSC[C@@H](C(=O)O)NC(=O)[C@H](Cc2ccc(O)cc2)NC(=O)[C@H](CO)NC(=O)[C@H](Cc2c[nH]cn2)NC(=O)[C@H](CCC(=O)O)NC1=O [SEQ ID No. 31] (H-CGFGNEHSYC-OH; disulfide 1-10) | particularly good inhibition |  | 
2 | CC[C@H](C)[C@@H]1NC(=O)[C@H](CCC(N)=O)NC(=O)[C@H]([C@@H](C)O)NC(=O)[C@H](CCCNC(=N)N)NC(=O)[C@@H](N)CSSC[C@@H](C(=O)O)NC(=O)[C@H](CO)NC(=O)[C@H](CC(=O)O)NC1=O [SEQ ID No. 35] (H-CRTQIDSC-OH; disulfide 1-8) |  |  | inhibitory activity compared with parent or linear peptide (VLA-4; result in words, relative to SEQ ID No. 4 (Nos. 27, 17) or SEQ ID No. 34 (No. 35)): more active than the linear peptide
3 | NC(=O)C[C@@H]1NC(=O)CNC(=O)[C@H](Cc2ccccc2)NC(=O)[C@H](Cc2ccc(O)cc2)NC(=O)[C@@H](N)CSSC[C@@H](C(=O)O)NC(=O)[C@H](Cc2ccc(O)cc2)NC(=O)[C@H](CO)NC(=O)[C@H](Cc2c[nH]cn2)NC(=O)[C@H](CCC(=O)O)NC1=O [SEQ ID No. 63] (H-CYFGNEHSYC-OH; disulfide 1-10) |  |  | IC50 (VLA-4; per Example 6: inhibition of Jurkat interaction with sVCAM-1-IgG, FACS, in the presence of Mn+2 and 15/7): ≤ 50 µM
4 | CGGEGYYGNYGVYA [SEQ ID No. 1] |  | bound equally well | 
5 | CGGEILDVPST [SEQ ID No. 2, fibronectin peptide described by Wayner, conjugated to carrier protein; positive control, reference compound] |  | bound equally well | 
6 | STLTMNPVSF [SEQ ID No. 40] | inhibitory; also recorded: quite active in a linear form |  | 
